Values quoted from earlier work, collected in patent US20040115181A1, “Composition for transmucosal adminstration containing conenzyme q as the active ingredient” (priority 2001, published 2004).

System: rats
Settings: continuously administered for 52 weeks, 1.2 g/kg/day, J. Agric. Food Chem., 1999, Vol. 47, P3756-3763

COC1=C(OC)C(=O)C(C/C=C(\C)CC/C=C(\C)CC/C=C(\C)CC/C=C(\C)CC/C=C(\C)CC/C=C(\C)CC/C=C(\C)CC/C=C(\C)CC/C=C(\C)CCC=C(C)C)=C(C)C1=O [coenzyme Q10]
Toxicity in safety test: no toxicity is observed
